Results on three compounds are retold here after paper PMC7602742, “Physiologically-Based Pharmacokinetic/Pharmacodynamic Model of MBQ-167 to Predict Tumor Growth Inhibition in Mice” (Pharmaceutics, 2020).

Usually Cmax stands for the peak of the concentration-time curve. As usually defined, the pKa is the pH at which an ionisable group is half protonated. Higher therefore signals a group that holds its proton tightly.

Data set [1] can be described thus: Tumor pharmacokinetics in 4T1 tumor-bearing mice (observed). The class given is in vivo. The note with it: BALB/c, mouse, tumor (4T1), single IP 10 mg/kg. Here is the method:
Thirty-five BALB/c mice were injected with 2.5 × 10^5 4T1 murine metastatic breast cancer cells at the mammary fat pad under isoflurane inhalation (1–3% in oxygen using an inhalation chamber at 2 L/min) to produce primary tumors, as described. Following IP treatment with a single dose of MBQ-167 (10 mg/kg), five mice/group were sacrificed by cervical dislocation at 0.5, 1, 3, 6, 9,12, and 24 h. Following sacrifice, tumors were collected and flushed with normal saline, individually wrapped in aluminum foil, snap-frozen in liquid nitrogen, and stored frozen at −80 °C until use.
Tumor samples were extracted by liquid-liquid extraction method, as previously described by. Briefly, frozen tumors were thawed, weighed (100 mg), and homogenized using the Polytron PT 2100 instrument in pH 7.4 saline (1:4 w/v). […]
We used a validated bioanalytical method using supercritical fluid chromatography coupled with tandem mass spectrometry to quantify MBQ-167 in tumors and tissues, as previously described. […]
The final MBQ-167 PBPK model was verified through both graphical and numerical analysis. […] The performance of the MBQ-167 PBPK model was assessed by the fold error at each tissue, which referred to the ratio of the predicted AUC0-t or Cmax to the observed AUC0-t or Cmax, respectively (Equation (1)). AUC0-t was calculated by the trapezoidal rule. […]

The subject of another data set is Cdc42. The arrangement: method as in PMID 28450422. The conditions noted are these: inhibition of GTPase activation; read-out: half-maximal inhibitory concentration (IC50) for Cdc42; cited from earlier work.
Data set [2] in a line: Physicochemical properties (PBPK model inputs). The conditions noted are these: model input. The text has this: The molecular weight of MBQ-167 is 338.414 g/mol and the water partition coefficient (logPoctanol:water) ratio is 4.944. […] The fu in plasma was estimated to 0.02. B/P ratio was initially estimated in the base PBPK model development phase and then optimized using a local sensitivity analysis (LSA) with a final value of 1.8.

Data set [3] deals with mammary fat pad tumor and metastases. The conditions noted are these: cited from earlier work.
Data set [4] is described as follows: Metabolism on incubation in liver microsomes. The class given is in vitro ADME. The conditions noted are these: incubated in liver microsomes. The text has this: (§1) Due to the limited information of any active process in MBQ-167 renal excretion and/or tubular reabsorption, it was assumed that renal excretion was only mediated by glomerular filtration.
The nature of data set [5]: Plasma and tissue pharmacokinetics after single IP dose (observed). The conditions noted are these: female, BALB/c, mouse, single IP 10 mg/kg, mice; for AUC(0-t): read-out: AUC obs (AUC0-t). In kind it is in vivo. Here is the method:
All animal studies were conducted under approved animal protocols (#A8180117, #A8180112) by the University of Puerto Rico Medical Sciences Campus Institutional Animal Care and Use Committee, in accordance with the principles and procedures outlined in the NIH Guideline for the Care and Use of Laboratory Animals. Four to five-week-old female BALB/c mice (Charles River Laboratories, Inc. Wilmington, MA, USA) were housed under pathogen-free conditions in HEPA-filtered cages and kept on a 12 h light/dark cycle, and controlled temperature (22–24 °C), and humidity (25%). Food and water were given ad libitum. MBQ-167 was prepared as a stock solution of 2 mg/mL in Cremophor®:ethanol:PBS (12.5:12.5:75) solution. Each mouse was administered a single 0.1 mL dose of MBQ-167 (in 12.5% ethanol, 12.5% Cremophor®, 75% phosphate buffered saline, pH 7.4) that corresponded to 10 mg/kg body weight (BW) by IP injection.
We used a validated bioanalytical method using supercritical fluid chromatography coupled with tandem mass spectrometry to quantify MBQ-167 in tumors and tissues, as previously described. The analysis was performed on an Acquity UPC^2 system (Waters Corp., Milford, MA, USA) coupled to a triple quadrupole tandem mass spectrometer (MS/MS). An Acquity UPC^2 BEH (3.0 × 100 mm^2, 1.7 μm) column was used for separation purposes.
The final MBQ-167 PBPK model was verified through both graphical and numerical analysis. Experimental and predicted longitudinal plasma concentration- (Cp) and tissue concentration- (Ct) profiles were generated, including the 95% confidence intervals (95% CI) of the observations at each sampling time and the mean predicted concentrations. LSA was performed to evaluate the relative impact of B/P, fu, CLR, CLtumor and PS in the plasma PK exposure parameters (AUC0-t and Cmax). The performance of the MBQ-167 PBPK model was assessed by the fold error at each tissue, which referred to the ratio of the predicted AUC0-t or Cmax to the observed AUC0-t or Cmax, respectively (Equation (1)). AUC0-t was calculated by the trapezoidal rule. Both graphical and numerical analyses were performed in RStudio version 1.2.5019 (Boston, MA, USA, 2019) with R version 3.5.1 (GNU project). (1) Fold ERROR PK parameter=Predicted PK parameter/Observed PK parameter

For another data set, the target named is CYP2C19 (Homo sapiens, UniProt P33261). Nature of the data set: CYP inhibition. In kind it is in vitro ADME.
Chain of CYP2C19 (P33261 whole entry): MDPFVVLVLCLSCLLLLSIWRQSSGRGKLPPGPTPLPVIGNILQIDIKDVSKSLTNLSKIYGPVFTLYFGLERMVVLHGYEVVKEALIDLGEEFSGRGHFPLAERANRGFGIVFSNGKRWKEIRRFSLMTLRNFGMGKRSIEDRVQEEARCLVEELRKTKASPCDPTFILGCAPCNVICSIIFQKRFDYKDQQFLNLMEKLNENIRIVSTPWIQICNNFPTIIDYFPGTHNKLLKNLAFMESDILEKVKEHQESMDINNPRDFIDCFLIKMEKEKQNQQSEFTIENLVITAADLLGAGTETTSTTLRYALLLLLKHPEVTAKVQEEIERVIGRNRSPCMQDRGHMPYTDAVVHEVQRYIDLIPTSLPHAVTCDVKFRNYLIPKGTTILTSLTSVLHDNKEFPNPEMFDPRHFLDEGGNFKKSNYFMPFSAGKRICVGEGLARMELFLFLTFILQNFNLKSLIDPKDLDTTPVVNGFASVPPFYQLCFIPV
From the text: as §1

The target in a further data set is T1, CYP1A2 (Homo sapiens, UniProt P05177).
T1 sequence (P05177 1-516): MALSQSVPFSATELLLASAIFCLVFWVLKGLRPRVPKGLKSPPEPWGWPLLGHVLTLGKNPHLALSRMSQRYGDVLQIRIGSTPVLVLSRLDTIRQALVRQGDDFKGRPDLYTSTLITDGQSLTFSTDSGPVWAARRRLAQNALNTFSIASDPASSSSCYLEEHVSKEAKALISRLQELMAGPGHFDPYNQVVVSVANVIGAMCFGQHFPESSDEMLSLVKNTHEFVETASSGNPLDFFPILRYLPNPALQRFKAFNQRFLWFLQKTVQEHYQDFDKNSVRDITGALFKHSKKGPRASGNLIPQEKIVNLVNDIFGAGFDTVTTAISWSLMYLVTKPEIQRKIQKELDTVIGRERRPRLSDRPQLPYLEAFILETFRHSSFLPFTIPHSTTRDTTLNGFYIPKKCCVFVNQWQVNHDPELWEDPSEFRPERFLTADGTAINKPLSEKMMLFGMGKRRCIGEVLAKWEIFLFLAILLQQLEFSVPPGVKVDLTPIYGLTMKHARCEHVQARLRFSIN
Kind of data set: CYP inhibition. The class given is in vitro ADME.
From the text: as §1

A further data set deals with CYP3A4 (Homo sapiens, UniProt P08684). Nature of the data set: CYP inhibition. The class given is in vitro ADME.
Chain of CYP3A4 (P08684 whole entry): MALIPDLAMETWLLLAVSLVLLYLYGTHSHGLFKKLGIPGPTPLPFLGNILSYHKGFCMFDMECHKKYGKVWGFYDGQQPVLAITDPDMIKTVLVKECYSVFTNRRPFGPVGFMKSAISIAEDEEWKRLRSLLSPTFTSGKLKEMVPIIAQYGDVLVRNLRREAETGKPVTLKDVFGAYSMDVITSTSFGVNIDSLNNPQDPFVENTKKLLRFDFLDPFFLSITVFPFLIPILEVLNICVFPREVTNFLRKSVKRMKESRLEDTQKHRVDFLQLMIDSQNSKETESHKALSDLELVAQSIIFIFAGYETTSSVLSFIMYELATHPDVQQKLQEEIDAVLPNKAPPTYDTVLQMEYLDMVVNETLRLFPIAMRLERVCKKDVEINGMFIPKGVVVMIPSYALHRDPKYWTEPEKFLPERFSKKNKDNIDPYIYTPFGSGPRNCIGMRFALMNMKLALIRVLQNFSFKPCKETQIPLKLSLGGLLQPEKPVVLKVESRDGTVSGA
From the text: as §1

The target in the next data set is CYP2C9 (Homo sapiens, UniProt P11712). Kind of data set: CYP inhibition. In kind it is in vitro ADME.
Chain of CYP2C9 (P11712 whole entry): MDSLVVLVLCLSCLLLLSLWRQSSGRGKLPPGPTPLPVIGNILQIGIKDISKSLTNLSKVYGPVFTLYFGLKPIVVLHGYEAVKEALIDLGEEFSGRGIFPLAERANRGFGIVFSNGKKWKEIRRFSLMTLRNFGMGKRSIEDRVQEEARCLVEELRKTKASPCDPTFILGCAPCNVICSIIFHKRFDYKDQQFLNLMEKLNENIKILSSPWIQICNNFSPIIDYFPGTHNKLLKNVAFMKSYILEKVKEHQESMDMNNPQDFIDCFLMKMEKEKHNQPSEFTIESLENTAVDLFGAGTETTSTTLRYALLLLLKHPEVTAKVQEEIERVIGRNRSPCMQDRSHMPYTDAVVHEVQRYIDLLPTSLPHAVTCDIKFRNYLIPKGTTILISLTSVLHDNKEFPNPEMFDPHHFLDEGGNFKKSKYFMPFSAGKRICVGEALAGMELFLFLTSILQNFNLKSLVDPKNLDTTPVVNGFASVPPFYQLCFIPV
From the text: as §1

The nature of data set [6]: Intrinsic clearance from in vitro hepatocytes. The class given is in vitro ADME. The conditions noted are these: in vitro determined, read-out: Hep intrinsic CL.
From the text: as §1

The test system of data set [7] is GFP-MDA-MB-231 (TNBC) mammary fat pad tumors. Kind of data set: Triple Negative tumor growth study (observed). In kind it is in vivo, athymic nude (nu/nu) mice. The note with it: 10 mg/kg BW IP three times a week for 108 days. As to the method:
As published elsewhere, female athymic nude (nu/nu) mice, 4 to 5 weeks old (Charles River Laboratories, Inc., Wilmington, MA, USA) were maintained under pathogen-free conditions in HEPA-filtered cages (5 mice per cage) under controlled light (12 h light and dark cycle), temperature (22–24 °C), and humidity (25%).
Mammary fat pad tumors were established using green fluorescent protein (GFP)-tagged MDA-MB-435 (HER2++) cells in Matrigel (BD Biosciences, San Jose, CA, USA) or GFP-MDA-MB-231 (TNBC) cells by injecting at the fourth right mammary fat pad under isofluorane inhalation (1–3% in oxygen using an inhalation chamber at 2 L/min) to produce orthotopic primary tumors. […]
Mammary tumor growth was quantified as changes in the integrated density of green fluorescent protein (GFP) fluorescence. […] The FluorVivo small animal in vivo imaging system (INDEC Systems, Inc., Santa Clara, CA, USA) was used for whole body imaging of GFP fluorescence. Tumor fluorescence intensities were analyzed using Image J software (National Institutes of Health, Bethesda, MD, USA, 2019, Version 1.52q 13). Relative tumor growth was calculated as the integrated density of fluorescence of each tumor on each day of imaging relative to the integrated density of fluorescence of the same tumor on day 1 of treatment administration, relative to vehicle controls.

Details of data set [8]: method as in PMID 31720502. The conditions noted are these: cited from earlier work.
For data set [9] the following is noted: cited from earlier work.

Regarding `CCn1c2ccccc2c2cc(-n3nncc3-c3ccccc3)ccc21` [MBQ-167], the Cmax in data set [1] was 1.24 µg/mL; in [5] (heart) it was 0.841 µg/mL; in [5] (kidneys) it was 11.2 µg/mL; in data set [5] (liver), 4.79 µg/mL; in data set [5] (lung) it was 1.54 µg/mL; in [5] (plasma) it was 0.84 µg/mL. This compound also yielded a Cmax in [5] (spleen) of 1.69 µg/mL. The AUC(0-t) was 10.3 µg·h/mL in data set [1] (read-out: AUC obs (AUC0-t)); 0.949 µg·h/mL in data set [5] (heart); 34.3 µg·h/mL in [5] (kidneys); 8.39 µg·h/mL in [5] (liver); 1.89 µg·h/mL in data set [5] (lung); 1.42 µg·h/mL in [5] (plasma). The AUC(0-t) in data set [5] (spleen) amounted to 3.98 µg·h/mL. Also, the IC50 with Cdc42 is […]. For the same compound, the “Compound Type” value in data set [2] is “Monoprotic Base”. For the same compound, the pKa in data set [2] (source not stated) was determined as 0.27. Besides, the “logPo:w” value in data set [2] (octanol:water, source not stated) stood at 4.944. The effect on metastases entry in data set [3] (10 mg/kg BW, mice) is “total inhibition of metastases”. Moreover, the “start of mammary fat pad tumor size reduction after treatment” value in [3] (10 mg/kg BW, mice) is reported as “approximately 3 weeks”. The toxicity in vivo entry in [3] (preclinical studies) is given as “without apparent toxicity”. In addition, the metabolites formed result in data set [4] was “up to nine metabolites”. Further, the CYP2C19 inhibition entry on CYP2C19 was “inhibits”. Further, the CYP1A2 inhibition entry at CYP1A2 is “inhibits”. The CYP3A4 inhibition result at CYP3A4 is “inhibits”. The CYP2C9 inhibition entry at CYP2C9 was “inhibits”. For the same compound, the hepatocyte CLint in [6] stood at 79 µL/min/1e6 cells. Moreover, the “observed relative reduction in the final tumor size” value in data set [7] is recorded as 87.0%. In addition, the “volume of distribution reported in the literature” value in [8] (mice of 20 g body weight) is reported as 400 mL. In data set [8] (mice), the “systemic plasma clearance (reported/observed)” value is 2.15 mL/min.
As for `O=c1cc(CN2CCOCC2)occ1OCCCCCSc1ccnc2cc(C(F)(F)F)ccc12` [EHT1864], the t1/2 in data set [9] is 1.65 h.
As to `CCn1c2ccccc2c2cc(Nc3ccnc(NCCCN4CCOCC4)n3)ccc21` [EHop-016], the t1/2 in data set [9] is on record as 5.73 h.
